Patent US20090203716A1, “Pyrimidine low molecular weight ligands for modulating hormone receptors” (The Government of the United States of America as …, priority 2006, published 2009)

What was measured:
[1] = system: TSHR mutant M9; test: cAMP production in HEK-EM 293 cells transiently expressing TSHR mutant M9; format: cell-based, human; settings: 30 μM compound
Description: HEK-EM 293 cells were grown in Dulbecco's modified Eagle's Medium (DMEM) supplemented with 10% fetal bovine serum, 100 units/ml penicillin and 10 μg/ml streptomycin (Life Technologies Inc.) at 37° C. in a humidified 5% CO2 incubator. Cells were transiently transfected with wild type TSHR and mutant receptors in 24-well plates (7.5×10^4 cells per well) with 0.4 μg DNA/well using FuGENE™ 6 reagent (Roche) according to the manufacturer's protocol.
The M9 mutant is described in Jaschke et al., J Biol Chem 281:9841-9844. The Y7.42A mutant was introduced into hTSHR-pcDNA3.1 via the QuickChange XL Site-Directed Mutagenesis kit (Stratagene). The construct was verified by sequencing (MWG Biotech).
Transiently transfected cells were cultured for 48 hours before the cAMP assay. HEK-EM 293 cells stably expressing TSHR, LHCGR or FSHR were seeded into 24-well plates with a density of 2.2×10^5 cells/well 24 hours before the cAMP assay. […] The intracellular cAMP content was determined with the cAMP Biotrak Enzymeimmunoassay (EIA) System (GE Healthcare). Data were analyzed using GraphPad Prism 4 for Windows. Receptor expression was measured as described in Jaschke et al., J Biol Chem 281:9841-9844.

[2] = target: T1, FSHR (Homo sapiens, UniProt P23945); test: intracellular cAMP accumulation in HEK-EM 293 cells stably expressing FSHR; format: cell-based
T1 sequence (P23945 18-695): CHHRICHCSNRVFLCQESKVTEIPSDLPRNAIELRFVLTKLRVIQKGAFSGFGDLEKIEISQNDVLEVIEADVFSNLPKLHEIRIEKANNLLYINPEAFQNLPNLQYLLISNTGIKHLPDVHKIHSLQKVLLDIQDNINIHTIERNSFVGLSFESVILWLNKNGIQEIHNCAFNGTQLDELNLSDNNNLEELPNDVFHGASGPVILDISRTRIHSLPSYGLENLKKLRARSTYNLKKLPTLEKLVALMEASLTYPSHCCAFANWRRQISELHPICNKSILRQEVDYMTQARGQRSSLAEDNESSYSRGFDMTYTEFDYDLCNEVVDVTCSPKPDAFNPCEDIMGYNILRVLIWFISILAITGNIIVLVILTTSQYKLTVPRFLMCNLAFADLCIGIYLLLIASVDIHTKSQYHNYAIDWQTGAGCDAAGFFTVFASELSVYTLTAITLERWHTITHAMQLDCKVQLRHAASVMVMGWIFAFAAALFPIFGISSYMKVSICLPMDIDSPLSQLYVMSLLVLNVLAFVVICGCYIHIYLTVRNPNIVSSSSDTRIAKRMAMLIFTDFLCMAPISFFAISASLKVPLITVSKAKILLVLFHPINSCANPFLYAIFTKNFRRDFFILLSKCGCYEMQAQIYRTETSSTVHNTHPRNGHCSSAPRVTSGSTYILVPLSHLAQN
Description: The expression vectors for human TSHR and LHR are described in Jaschke et al., J Biol Chem 281:9841-9844. The FSHR cDNA in pcDNA3.1 was obtained from the Missouri S&T cDNA Resource Center (www.cDNA.org) and was subcloned into the pcDNA3.1(−)/hygromycin vector. HEK-EM 293 cells were transfected with the cDNA of TSHR, LHCGR or FSHR using FuGENE 6 Transfection reagent (Roche Diagnostics). Hygromycin (250 μg/ml) was used as selection marker.
(§1) Transiently transfected cells were cultured for 48 hours before the cAMP assay. HEK-EM 293 cells stably expressing TSHR, LHCGR or FSHR were seeded into 24-well plates with a density of 2.2×10^5 cells/well 24 hours before the cAMP assay. After removal of growth medium, cells were incubated for 1 hour in HBSS (Cellgro) with 10 mM HEPES (Cellgro) containing 1 mM 3-isobutyl-1-methylxanthine (IBMX) (Sigma) and the ligand of interest in a humidified 5% CO2 incubator at 37° C. The intracellular cAMP content was determined with the cAMP Biotrak Enzymeimmunoassay (EIA) System (GE Healthcare). Data were analyzed using GraphPad Prism 4 for Windows. Receptor expression was measured as described in Jaschke et al., J Biol Chem 281:9841-9844.

[3] = target: T2, TSHR (Homo sapiens, UniProt P16473); test: competition with 125I-labeled TSH for binding to TSHR
[4] = target: T2, TSHR; test: inhibition of TSH-mediated cAMP response in HEK-EM 293 cells stably expressing TSHR; format: cell-based; set-up: expressed in transfected cells
Description: as §1
The TSH-mediated cAMP response of TSHR was inhibited by a maximum of 70.8±5.5% at 30 μM compound 52. […] Compound 52 has no activity at FSHR.
To exclude the possibility that compound 52 might be acting independently of TSHR by building aggregates with TSH, thereby inhibiting the TSH-induced response, tests were conducted for a possible aggregation between these two ligands. Compound 52 and TSH were preincubated for up to 15 minutes before addition to HEK-EM 293 cells stably expressing TSHR. […] There was no difference in the antagonistic effect whether TSH and compound 52 were preincubated together or not (data not shown) thereby excluding the possibility that its effect was caused by aggregation with TSH.

[5] = target: T3, human LHCG receptor (Homo sapiens, UniProt P22888); test: intracellular cAMP accumulation, agonism at LHCGR stably expressed in HEK EM 293 cells; format: cell-based; settings: full activation of LHCGR by LH set at 100%
T3 construct: expressed in transfected cells
Description: With reference to Table 1, exemplary disclosed compounds were evaluated against human TSH receptor and human LHCG receptor that were stably expressed in HEK 293 EM cells as previously described by Libert et al. (Biochem. Biophys. Res. Commun. 1989, 165, 1250-1255); and by Schulz et al. (Mol. Endocrinol. 1999, 13, 181-190). Cell surface expression of TSH receptor and LHCG receptor were determined via FACS analysis (Kleinau, G.; Jäschke, H.; Neumann, S.; Lättig, S.; Paschke, R.; Krause, G. J. Biol. Chem. 2004, 279, 51590-51600).
Following aspiration of the medium after incubation with compounds, cells were lysed using lysis buffer 1 of the cAMP Biotrak Enzymeimmunoassay (EIA) System (Amersham Biosciences). The cAMP content of the cell lysate was determined using the manufacturer's protocol. […] The potency (EC50) was obtained from dose response curves (0-100 μM compound) by data analysis with GraphPad Prism 4 for Windows. […] The data are presented as mean±SEM of two independent experiments, each performed in duplicate.
as §1

T2 sequence (P16473 21-764): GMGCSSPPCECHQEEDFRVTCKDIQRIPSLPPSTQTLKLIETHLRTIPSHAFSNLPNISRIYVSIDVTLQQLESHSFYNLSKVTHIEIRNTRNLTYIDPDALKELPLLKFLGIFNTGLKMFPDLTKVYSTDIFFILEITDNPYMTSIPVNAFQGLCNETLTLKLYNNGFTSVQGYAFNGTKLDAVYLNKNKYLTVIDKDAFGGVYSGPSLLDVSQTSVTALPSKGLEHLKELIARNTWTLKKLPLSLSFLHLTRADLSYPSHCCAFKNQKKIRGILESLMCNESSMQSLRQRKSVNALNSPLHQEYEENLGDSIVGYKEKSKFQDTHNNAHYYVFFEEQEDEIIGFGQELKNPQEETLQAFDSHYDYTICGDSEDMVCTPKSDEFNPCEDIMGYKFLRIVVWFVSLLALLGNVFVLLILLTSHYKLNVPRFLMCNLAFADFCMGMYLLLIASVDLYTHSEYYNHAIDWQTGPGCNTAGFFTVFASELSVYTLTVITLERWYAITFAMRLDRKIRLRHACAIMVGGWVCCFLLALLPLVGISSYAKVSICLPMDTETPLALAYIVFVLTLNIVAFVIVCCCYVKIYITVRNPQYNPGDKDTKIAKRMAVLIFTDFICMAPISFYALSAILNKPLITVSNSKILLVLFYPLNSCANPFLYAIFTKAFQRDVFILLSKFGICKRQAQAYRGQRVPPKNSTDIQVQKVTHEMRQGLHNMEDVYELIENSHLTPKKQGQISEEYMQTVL
T3 sequence (P22888 27-699): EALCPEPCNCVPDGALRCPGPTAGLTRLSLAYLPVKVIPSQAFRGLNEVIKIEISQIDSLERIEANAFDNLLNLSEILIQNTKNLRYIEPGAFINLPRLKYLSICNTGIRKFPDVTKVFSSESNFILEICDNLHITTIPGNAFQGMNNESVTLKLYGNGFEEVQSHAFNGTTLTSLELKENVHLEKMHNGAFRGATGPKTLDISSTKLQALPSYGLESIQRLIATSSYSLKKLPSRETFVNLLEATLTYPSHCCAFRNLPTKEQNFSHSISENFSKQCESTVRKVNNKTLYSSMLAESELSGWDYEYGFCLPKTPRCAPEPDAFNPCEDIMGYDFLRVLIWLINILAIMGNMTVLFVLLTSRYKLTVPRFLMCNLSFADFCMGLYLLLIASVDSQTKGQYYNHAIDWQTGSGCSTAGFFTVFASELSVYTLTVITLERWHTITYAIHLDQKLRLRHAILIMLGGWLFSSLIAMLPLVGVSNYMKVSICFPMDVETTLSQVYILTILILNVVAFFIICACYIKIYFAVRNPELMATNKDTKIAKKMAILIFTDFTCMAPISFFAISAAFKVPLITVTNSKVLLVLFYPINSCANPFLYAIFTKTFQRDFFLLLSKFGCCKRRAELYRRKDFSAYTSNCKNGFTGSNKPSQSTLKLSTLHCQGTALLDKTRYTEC

SMILES: COC/C=C/c1ccc(-c2nc(SC)nc3sc(C(=O)NC(C)(C)C)c(N)c23)cc1 [Compound 52]
- cAMP production, fold over TSHR basal activity, M9 [1]: 13.2±1.7 fold
- activity at FSHR [2]: no activity
- competition with 125I-labeled TSH for binding to TSHR [3]: does not compete
- antagonistic activity at TSHR in cAMP assay [4]: antagonist
- selectivity toward TSHR compared to LHCGR and FSHR [4]: selective toward TSHR
- antagonistic effect with or without preincubation with TSH (aggregation test) ([4]; 30 μM compound, 1.8 nM TSH, preincubated up to 15 minutes): no difference
- inhibition at 30 µM ([4]; HEK-EM293, read-out: maximum inhibition of TSH-mediated cAMP response of TSHR): 70.8 ± 5.5%
- IC50 ([4]; with EC50 dose of TSH): 4.2 µM
- activity at LHCGR compared to full activation by LH [5]: 17.25±2.25%
